Experimental findings from patent publication US8088815B2, “Spiroindolinone pyrrolidines” (Hoffman-La Roche Inc., priority 2009, dated 2012) are described below.

The target of the experiment is interaction between p53 and MDM2 proteins (Homo sapiens, UniProt Q00987). Kind of experiment: HTRF assay of inhibition of the p53-MDM2 interaction (GST-MDM2 / biotinylated p53 peptide). Conditions: recombinant GST-tagged MDM2 and biotinylated p53 peptide, bsa:0.02%. Type of experiment: binding. How it is done: The ability of the compounds to inhibit the interaction between p53 and MDM2 proteins was measured by an HTRF (homogeneous time-resolved fluorescence) assay in which recombinant GST-tagged MDM2 binds to a peptide that resembles the MDM2-interacting region of p53. Binding of GST-MDM2 protein and p53-peptide (biotinylated on its N-terminal end) is registered by the FRET (fluorescence resonance energy transfer) between Europium (Eu)-labeled anti-GST antibody and streptavidin-conjugated Allophycocyanin (APC).
Sequence of interaction between p53 and MDM2 proteins (Q00987 whole entry): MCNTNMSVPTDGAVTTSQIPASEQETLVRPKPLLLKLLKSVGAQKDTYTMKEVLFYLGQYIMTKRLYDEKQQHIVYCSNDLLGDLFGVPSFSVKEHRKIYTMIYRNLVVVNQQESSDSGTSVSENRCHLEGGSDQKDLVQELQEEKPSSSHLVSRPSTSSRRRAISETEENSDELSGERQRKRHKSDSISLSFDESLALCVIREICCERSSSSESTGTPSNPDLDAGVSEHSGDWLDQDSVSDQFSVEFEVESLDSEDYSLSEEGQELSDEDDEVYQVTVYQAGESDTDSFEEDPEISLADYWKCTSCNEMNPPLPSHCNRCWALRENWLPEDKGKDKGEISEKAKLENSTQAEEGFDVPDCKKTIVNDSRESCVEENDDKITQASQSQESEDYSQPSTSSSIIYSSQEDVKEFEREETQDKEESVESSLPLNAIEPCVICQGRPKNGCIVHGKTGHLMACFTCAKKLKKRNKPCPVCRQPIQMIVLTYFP
Add 10 uL diluted compounds (1:5 dilution in reaction buffer) to each well, mix by shaking. Add 20 uL biotinylated p53 peptide (180 nM working solution) in reaction buffer to each well and mix on shaker. Incubate at 37° C. for 1 h. Add 20 uL streptavidin-APC and Eu-anti-GST antibody mixture (6 nM Eu-anti-GST and 60 nM streptavidin-APC working solution) in TBS buffer with 0.2% BSA, shake at room temperature for 30 minutes and read using a TRF-capable plate reader at
665 and 615 nm (Victor 5, Perkin ElmerWallac). If not specified, the reagents were purchased from Sigma Chemical Co.
With `COC(=O)c1cc(OC)c(NC(=O)[C@@H]2N[C@@H](CC(C)(C)C)[C@@]3(C(=O)Nc4cc(Cl)ccc43)[C@H]2c2cccc(Cl)c2F)cc1F` (racemic) [Example 214, rac-4-{[(2′S,3′R,4′S,5′R)-6-chloro-4′-(3-chloro-2-fluoro-phenyl)-2′-(2,2-dimethyl-propyl)-2-oxo-1,2-dihydro-spiro[indole-3,3′-pyrrolidine]-5′-carbonyl]amino}-2-fluoro-5-methoxy-benzoic acid methyl ester], the IC50 is 0.02 µM.
Turning to `COc1cc(C(N)=O)ccc1NC(=O)[C@@H]1N[C@@H](CC(C)(C)C)[C@@]2(C(=O)Nc3cc(Cl)ccc32)[C@H]1c1cccc(Cl)c1F` [Example 60, chiral (2′S,3′R,4′S,5′R)-6-chloro-4′-(3-chloro-2-fluoro-phenyl)-2′-(2,2-dimethyl-propyl)-2-oxo-1,2-dihydro-spiro[indole-3,3′-pyrrolidine]-5′-carboxylic acid (4-carbamoyl-2-methoxy-phenyl)-amide], the half-inhibitory concentration (IC50) amounted to 0.005 µM.
The result for `COc1cc(CC(=O)O)ccc1NC(=O)[C@@H]1N[C@@H](CC(C)(C)C)[C@@]2(C(=O)Nc3cc(Cl)ccc32)[C@H]1c1cccc(Cl)c1F` [Example 160, chiral (4-{[(2′S,3′R,4′S,5′R)-6-chloro-4′-(3-chloro-2-fluoro-phenyl)-2′-(2,2-dimethyl-propyl)-2-oxo-1,2-dihydro-spiro[indole-3,3′-pyrrolidine]-5′-carbonyl]-amino}-3-methoxy-phenyl)-acetic acid] reads 0.005 µM.
In the case of `CC(C)(C)C[C@@H]1N[C@@H](C(=O)Nc2ccc(C#N)cc2)[C@H](c2cccc(Cl)c2F)[C@]12C(=O)Nc1c2ccc(Cl)c1F` (racemic) [Example 175, rac-(2′S,3′R,4′S,5′R)-6-chloro-4′-(3-chloro-2-fluoro-phenyl)-2′-(2,2-dimethyl-propyl)-7-fluoro-2-oxo-1,2-dihydro-spiro[indole-3,3′-pyrrolidine]-5′-carboxylic acid (4-cyano-phenyl)-amide], the half-inhibitory concentration (IC50) was found to be 0.04 µM.
Regarding `CC(C)(C)C[C@@H]1N[C@@H](C(=O)Nc2ccn(CCO)c(=O)c2)[C@H](c2cccc(Cl)c2F)[C@]12C(=O)Nc1cc(Cl)ccc12` (racemic) [Example 30], the concentration for half-maximal inhibition (IC50) turned out to be 0.014 µM.
Take `COC(=O)c1ccc(NC(=O)[C@@H]2N[C@@H](CC(C)(C)C)[C@@]3(C(=O)Nc4cc(Cl)ccc43)[C@H]2c2cc(F)cc(Cl)c2)c(OC)c1` (racemic) [Example 124, rac-4-{[(2′S,3′R,4′R,5′R)-6-chloro-4′-(3-chloro-5-fluoro-phenyl)-2′-(2,2-dimethyl-propyl)-2-oxo-1,2-dihydro-spiro[indole-3,3′-pyrrolidine]-5′-carbonyl]-amino}-3-methoxy-benzoic acid methyl ester]: the IC50 turned out to be 0.015 µM.
As to `COc1cc(S(=O)(=O)N2CCOCC2)ccc1NC(=O)[C@@H]1N[C@@H](CC(C)(C)C)[C@@]2(C(=O)Nc3cc(Cl)ccc32)[C@H]1c1cccc(Cl)c1F` (racemic) [Example 138, rac-(2′S,3′R,4′S,5′R)-6-chloro-4′-(3-chloro-2-fluoro-phenyl)-2′-(2,2-dimethyl-propyl)-2-oxo-1,2-dihydro-spiro[indole-3,3′-pyrrolidine]-5′-carboxylic acid [2-methoxy-4-(morpholine-4-sulfonyl)-phenyl]-amide], the half-maximal inhibitory concentration (IC50) came to 0.013 µM.
Consider `CC(C)(C)C[C@@H]1N[C@@H](C(=O)Nc2ccc(C(N)=O)nc2)[C@H](c2cccc(Cl)c2F)[C@]12C(=O)Nc1cc(Cl)ccc12` (racemic) [Example 183, rac-(2′S,3′R,4′S,5′R)-6-chloro-4′-(3-chloro-2-fluoro-phenyl)-2′-(2,2-dimethyl-propyl)-2-oxo-1,2-dihydro-spiro[indole-3,3′-pyrrolidine]-5′-carboxylic acid (6-carbamoyl-pyridin-3-yl)-amide], for which the 50% inhibitory concentration (IC50) was 0.007 µM.
`CC(C)(C)C[C@@H]1N[C@@H](C(=O)Nc2ccc(C(N)=O)cc2)[C@H](c2cccc(Cl)c2F)[C@]12C(=O)Nc1c2ccc(Cl)c1F` (racemic) [Example 176, rac-(2′S,3′R,4′S,5′R)-6-chloro-4′-(3-chloro-2-fluoro-phenyl)-2′-(2,2-dimethyl-propyl)-7-fluoro-2-oxo-1,2-dihydro-spiro[indole-3,3′-pyrrolidine]-5′-carboxylic acid (4-carbamoyl-phenyl)-amide]: the IC50 came to 0.018 µM.
As for `CC(C)(C)C[C@@H]1N[C@@H](C(=O)Nc2ccc(C#N)cc2)[C@H](c2cccc(Cl)c2F)[C@]12C(=O)Nc1cc(Cl)ccc12` (racemic) [Example 7, rac-(2′S,3′R,4′S,5′R)-6-chloro-4′-(3-chloro-2-fluoro-phenyl)-2′-(2,2-dimethyl-propyl)-2-oxo-1,2-dihydro-spiro[indole-3,3′-pyrrolidine]-5′-carboxylic acid (4-cyano-phenyl)-amide], the figure is 0.014 µM; as for `CC(C)(C)C[C@@H]1N[C@@H](C(=O)Nc2ccc(C(N)=O)cc2)[C@H](c2ccc(F)c(Cl)c2)[C@]12C(=O)Nc1cc(Cl)ccc12` (racemic) [Example 84, rac-(2′S,3′R,4′R,5′R)-6-chloro-4′-(3-chloro-4-fluoro-phenyl)-2′-(2,2-dimethyl-propyl)-2-oxo-1,2-dihydro-spiro[indole-3,3′-pyrrolidine]-5′-carboxylic acid (4-carbamoyl-phenyl)-amide], 0.015 µM.
Turning to `COc1cc(C(=O)NC#N)ccc1NC(=O)[C@@H]1N[C@@H](CC(C)(C)C)[C@@]2(C(=O)Nc3cc(Cl)ccc32)[C@H]1c1cccc(Cl)c1F` [Example 223, chiral (2′S,3′R,4′S,5′R)-6-chloro-4′-(3-chloro-2-fluorophenyl)-N-(4-(cyanocarbamoyl)-2-methoxyphenyl)-2′-(2,2-dimethyl-propyl)-2-oxospiro[indoline-3,3′-pyrrolidine]-5′-carboxamide], the concentration for half-maximal inhibition (IC50) is 0.007 µM.
The result for “rac-4-{[(2′S,3′R,4′R,5′R)-6-chloro-4′-(3-chloro-4-fluoro-phenyl)-2′-(2,2-dimethyl-propyl)-2-oxo-1,2-dihydro-spiro[indole-3,3′-pyrrolidine]-5′-carbonyl]-amino}-3-methoxy-benzoic acid [Example 127]” reads 0.012 µM.
With `COc1cc(C(N)=O)ccc1NC(=O)[C@@H]1N[C@@H](CC(C)(C)C)[C@@]2(C(=O)Nc3cc(Br)ccc32)[C@H]1c1cccc(Cl)c1F` (racemic) [Example 119, rac-(2′S,3′R,4′S,5′R)-6-bromo-4′-(3-chloro-2-fluoro-phenyl)-2′-(2,2-dimethyl-propyl)-2-oxo-1,2-dihydro-spiro[indole-3,3′-pyrrolidine]-5′-carboxylic acid (4-carbamoyl-2-methoxy-phenyl)-amide], the half-inhibitory concentration (IC50) was 0.007 µM.
With `COc1cc(NS(C)(=O)=O)ccc1NC(=O)[C@@H]1N[C@@H](CC(C)(C)C)[C@@]2(C(=O)Nc3cc(Cl)ccc32)[C@H]1c1cccc(Cl)c1F` (racemic) [Example 155, rac-(2′S,3′R,4′S,5′R)-6-chloro-4′-(3-chloro-2-fluoro-phenyl)-2′-(2,2-dimethyl-propyl)-2-oxo-1,2-dihydro-spiro[indole-3,3′-pyrrolidine]-5′-carboxylic acid (4-methanesulfonylamino-2-methoxy-phenyl)-amide], the IC50 worked out at 0.013 µM.
As for `CC(C)(C)C[C@@H]1N[C@@H](C(=O)Nc2ccc(OCCO)cc2)[C@H](c2cccc(Cl)c2F)[C@]12C(=O)Nc1cc(Cl)ccc12` [Example 20, chiral (2′S,3′R,4′S,5′R)-6-chloro-4′-(3-chloro-2-fluoro-phenyl)-2′-(2,2-dimethyl-propyl)-2-oxo-1,2-dihydro-spiro[indole-3,3′-pyrrolidine]-5′-carboxylic acid [4-(2-hydroxy-ethoxy)-phenyl]-amide], the IC50 was 0.007 µM.
For the compound `CN(C)C(=O)c1ccc(NC(=O)[C@@H]2N[C@@H](CC(C)(C)C)[C@@]3(C(=O)Nc4cc(Cl)ccc43)[C@H]2c2cccc(Cl)c2F)cc1` [Example 35, chiral (2′S,3′R,4′S,5′R)-6-chloro-4′-(3-chloro-2-fluoro-phenyl)-2′-(2,2-dimethyl-propyl)-2-oxo-1,2-dihydro-spiro[indole-3,3′-pyrrolidine]-5′-carboxylic acid (4-dimethylcarbamoyl-phenyl)-amide], the IC50 was found to be 0.005 µM.
As to `COc1cc(C(=O)O)ccc1NC(=O)[C@@H]1N[C@@H](CC(C)(C)C)[C@@]2(C(=O)Nc3cc(Cl)ccc32)[C@H]1c1cccc(Cl)c1F` [Example 111, chiral 4-{[(2′S,3′R,4′S,5′R)-6-chloro-4′-(3-chloro-2-fluoro-phenyl)-2′-(2,2-dimethyl-propyl)-2-oxo-1,2-dihydro-spiro[indole-3,3′-pyrrolidine]-5′-carbonyl]-amino}-3-methoxy-benzoic acid], the IC50 amounted to 0.005 µM.
As for `CC(C)(C)C[C@@H]1N[C@@H](C(=O)Nc2ccc(C(N)=O)cc2)[C@H](c2cccc(Cl)c2F)[C@]12C(=O)Nc1cc(Cl)ccc12` [Example 9, chiral (2′S,3′R,4′S,5′R)-6-chloro-4′-(3-chloro-2-fluoro-phenyl)-2′-(2,2-dimethyl-propyl)-2-oxo-1,2-dihydro-spiro[indole-3,3′-pyrrolidine]-5′-carboxylic acid (4-carbamoyl-phenyl)-amide], the figure is 0.004 µM; as for `COc1cnccc1NC(=O)[C@@H]1N[C@@H](CC(C)(C)C)[C@@]2(C(=O)Nc3cc(Cl)ccc32)[C@H]1c1cccc(Cl)c1F` (racemic) [Example 162, rac-(2′S,3′R,4′S,5′R)-6-chloro-4′-(3-chloro-2-fluoro-phenyl)-2′-(2,2-dimethyl-propyl)-2-oxo-1,2-dihydro-spiro[indole-3,3′-pyrrolidine]-5′-carboxylic acid (3-methoxy-pyridin-4-yl)-amide], 0.019 µM.
